Columns and labels:
JAK2 = JAK2 (Homo sapiens (Human), UniProt O60674); assay: JAK2 inhibitory activity, mobility shift assay, 1 mM ATP; assay type: biochemical; settings: Table 7
Method: (§1) The JAK1 inhibitory activity and the JAK2 inhibitory activity of the amide compounds provided in the above examples were tested by the method below.
(§2) Specific steps are described below. • 1. A 1× Kinase buffer was formulated. • 2. Concentration gradients of the compound were formulated: a test compound with an initial concentration of 10000 nM (JAK1) or 30000 nM (JAK2) was diluted in a 384-well plate to a 100% DMSO solution with a 100-fold final concentration, wherein the compound was diluted by a fold of 3 to 10 concentrations. 250 nL of the compound with the 100-fold final concentration was transferred with a dispenser Echo 550 to the target plate. • 3. A kinase solution with a 2.5-fold final concentration was prepared with the 1× Kinase buffer. • 4. […] The plate was centrifuged at 1000 rpm for 30 s, shaken and uniformly mixed, and incubated for 10 min at room temperature. • 6. A mixed solution of ATP (the final concentration of ATP=1 mM) and Kinase substrate with a 5/3-fold final concentration was formulated with the 1× Kinase buffer. • 7. 15 μL of the mixed solution of ATP and the substrate with the 5/3-fold final concentration was added to initiate the reaction. • 8. The 384-well plate was centrifuged at 1000 rpm for 30 s, shaken and uniformly mixed, and incubated for respective times at room temperature. • 9. The kinase reaction was stopped by adding 30 μL of a detection termination solution, and the plate was centrifuged at 1000 rpm for 30 s and shaken and uniformly mixed. • 10. The conversion rate was read with Caliper EZ Reader and the half maximal inhibitory concentration (IC50) was calculated.

JAK1 = JAK1 (Homo sapiens (Human), UniProt P23458); assay: JAK1 inhibitory activity, mobility shift assay, 1 mM ATP; assay type: biochemical; settings: 1 mM ATP; Table 7
Method: as §1, §2

JAK2, sequence (O60674 826-1132): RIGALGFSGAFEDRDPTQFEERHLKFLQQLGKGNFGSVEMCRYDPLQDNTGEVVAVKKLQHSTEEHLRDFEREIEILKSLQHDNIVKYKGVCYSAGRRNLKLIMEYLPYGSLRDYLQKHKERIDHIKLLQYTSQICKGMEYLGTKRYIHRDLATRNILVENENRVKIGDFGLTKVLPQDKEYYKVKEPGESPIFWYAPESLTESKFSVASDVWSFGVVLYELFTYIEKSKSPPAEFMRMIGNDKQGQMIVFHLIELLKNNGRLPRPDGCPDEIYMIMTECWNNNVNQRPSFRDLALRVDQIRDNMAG
JAK1, sequence (P23458 850-1154): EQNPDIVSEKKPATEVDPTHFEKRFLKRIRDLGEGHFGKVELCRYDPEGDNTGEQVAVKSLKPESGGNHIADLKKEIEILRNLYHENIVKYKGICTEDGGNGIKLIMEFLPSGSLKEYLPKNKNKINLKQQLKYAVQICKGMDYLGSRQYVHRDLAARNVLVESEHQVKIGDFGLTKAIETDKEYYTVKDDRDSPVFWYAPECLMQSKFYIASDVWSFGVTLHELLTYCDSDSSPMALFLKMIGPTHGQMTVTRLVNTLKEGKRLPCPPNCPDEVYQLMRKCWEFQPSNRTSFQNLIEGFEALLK

Row | IC50 (JAK2) | IC50 (JAK1) | SMILES
1 | 12400 nM | 68 nM | COc1nn(C)cc1Nc1ncc(F)c(-c2c[nH]c3c(NC(=O)[C@H]4CCCN4[C@H]4CCN(C)C4)cccc23)n1 [Example 25, (2R,3′S)-N-(3-(5-fluoro-2-((3-methoxy-1-methyl-1H-pyrazol-4-yl)amino)pyrimidin-4-yl)-1H-indol-7-yl)-1′-methyl-[1,3′-bipyrrolidine]-2-carboxamide]
2 | 5490 nM | 48 nM | COc1nn(C)cc1Nc1ncc(F)c(-c2c[nH]c3c(NC(=O)[C@H]4CC(F)(F)CN4[C@@H]4CCN(C)C4)cccc23)n1 [Example 26, (2R,3′R)-4,4-difluoro-N-(3-(5-fluoro-2-((3-methoxy-1-methyl-1H-pyrazol-4-yl)amino)pyrimidin-4-yl)-1H-indol-7-yl)-1′-methyl-[1,3′-bipyrrolidine]-2-carboxamide]
3 | 4400 nM | 60 nM | COc1nn(C)cc1Nc1ncc(F)c(-c2c[nH]c3c(NC(=O)[C@H]4CC(F)(F)CN4[C@H]4CCN(C)C4)cccc23)n1 [Example 27, (2R,3′S)-4,4-difluoro-N-(3-(5-fluoro-2-((3-methoxy-1-methyl-1H-pyrazol-4-yl)amino)pyrimidin-4-yl)-1H-indol-7-yl)-1′-methyl-[1,3′-bipyrrolidine]-2-carboxamide]
4 | 16300 nM | 40 nM | COc1nn(C)cc1Nc1ncc(C)c(-c2c[nH]c3c(NC(=O)[C@H]4CCCN4[C@@H]4CCN(C)C4)cccc23)n1 [Example 28, (2R,3′R)-N-(3-(2-((3-methoxy-1-methyl-1H-pyrazol-4-yl)amino)-5-methylpyrimidin-4-yl)-1H-indol-7-yl)-1′-methyl-[1,3′-bipyrrolidine]-2-carboxamide]
5 | 13400 nM | 67 nM | COc1nn(C)cc1Nc1ncc(C)c(-c2c[nH]c3c(NC(=O)[C@H]4CCCN4[C@H]4CCN(C)C4)cccc23)n1 [Example 29, (2R,3′S)-N-(3-(2-((3-methoxy-1-methyl-1H-pyrazol-4-yl)amino)-5-methylpyrimidin-4-yl)-1H-indol-7-yl)-1′-methyl-[1,3′-bipyrrolidine]-2-carboxamide]
6 | 11900 nM | 92 nM | COc1nn(C)cc1Nc1ncc(C)c(-c2c[nH]c3c(NC(=O)[C@H]4C[C@H](F)CN4[C@H]4CCN(C)C4)cccc23)n1 [Example 31, (2R,3′S,4S)-4-fluoro-N-(3-(2-((3-methoxy-1-methyl-1H-pyrazol-4-yl)amino)-5-methylpyrimidin-4-yl)-1H-indol-7-yl)-1′-methyl-[1,3′-bipyrrolidine]-2-carboxamide]
7 | 3430 nM | 39 nM | COc1nn(C)cc1Nc1ncc(C)c(-c2c[nH]c3c(NC(=O)[C@H]4CC(F)(F)CN4[C@H]4CCN(C)C4)cccc23)n1 [Example 33, (2R,3′S)-4,4-difluoro-N-(3-(2-((3-methoxy-1-methyl-1H-pyrazol-4-yl)amino)-5-methylpyrimidin-4-yl)-1H-indol-7-yl)-1′-methyl-[1,3′-bipyrrolidine]-2-carboxamide]
8 | 2510 nM | 161 nM | COc1nn(C)cc1Nc1ncc(C)c(-c2c[nH]c3c(NC(=O)[C@H]4CC(F)(F)CN4[C@@H]4CCOC4)cccc23)n1 [Example 34, (R)-4,4-difluoro-N-(3-(2-((3-methoxy-1-methyl-1H-pyrazol-4-yl)amino)-5-methylpyrimidin-4-yl)-1H-indol-7-yl)-1-((R)-tetrahydrofuran-3-yl)pyrrolidine-2-carboxamide]
9 | 1890 nM | 115 nM | COc1nn(C)cc1Nc1ncc(C)c(-c2c[nH]c3c(NC(=O)[C@H]4CC(F)(F)CN4[C@H]4CCOC4)cccc23)n1 [Example 35, (R)-4,4-difluoro-N-(3-(2-((3-methoxy-1-methyl-1H-pyrazol-4-yl)amino)-5-methylpyrimidin-4-yl)-1H-indol-7-yl)-1-((S)-tetrahydrofuran-3-yl)pyrrolidine-2-carboxamide]

Reference: patent US20230416237A1, “AMIDE COMPOUND, PHARMACEUTICAL COMPOSITION AND USE THEREOF” (SHENZHEN BO LI JIAN MEDICINE CO., LTD., priority 2020, published 2023)
